By pIC50 is commonly meant −log10 of the IC50, conventionally taken in molar units.

Experimental findings from patent publication US20260022118A1, “HETEROCYCLIC COMPOUNDS AS NRAS INHIBITORS” (Board of Regents, The University of Texas System, priority 2023, published 2026) are described below.

pIC50: −log10 of the molar value. Where only a bound is given, the exact number is not on record here.

The subject of the first test is THP-1 cells expressing G12D (NRAS G12D). The experiment in a line: Inhibition of NRAS G12D-mediated phosphorylation of ERK (AlphaLISA p-ERK1/2) in THP-1 cells. Type of test: cell-based. As to conditions: 2 hours incubation, HBSS with 0% or 10% FBS, p-ERK1/2 (Thr202/Tyr204) AlphaLISA, read-out: pERK THP-1 IC50. The method, then: Inhibition of NRAS G12D-Mediated Phosphorylation of ERK by Exemplary Compounds of Formulas I, II, and III.
This Example illustrates that exemplary compounds and salts thereof described herein inhibit the phosphorylation of ERK downstream of NRAS G12D.
THP-1 cells (ATCC TIB-202) expressing G12D were maintained in RPMI-1640 medium supplemented with 10% fetal bovine serum (FBS), 0.05 mM 2-mercaptoethanol, and penicillin/streptomycin. Cells (20,000/well) were seeded onto a 384 well plate in 20 μL of HBSS supplemented with 0% or 10% FBS. Cells were incubated in the absence or presence of various concentrations of test compound (final 1% DMSO) for 2 hours. p-ERK expression was assessed using the AlphaLISA SureFire Ultra p-ERK1/2 (Thr202/Tyr204) (PerkinElmer®, ALSU-PERK-A10K) following manufacturer recommendation. Plates were read on a PerkinElmer® Envision Multimode plate reader. Dose-response curves were analyzed using IC50 regression curve fitting (GeneData Screener). Curves were plotted as a percent control and normalized by high controls without inhibitor (100%), and low controls (0%) containing 1 μM of trametinib, a potent MEK inhibitor.
On the technique in general: Alpha assays give light when donor and acceptor beads are brought close together.
Take `C#Cc1c(F)ccc2cc(O)cc(-c3ncc4c([C@H]5[C@@H]6CN[C@@H](C(=O)OC)[C@@H]65)nn(C)c4c3F)c12` (racemic) [Example 47, methyl rac-(2R,6S)-6-[6-(8-ethynyl-7-fluoro-3-hydroxy-1-naphthyl)-7-fluoro-1-methyl-pyrazolo[4,3-c]pyridin-3-yl]-3-azabicyclo[3.1.0]hexane-2-carboxylate]: the negative-log IC50 (pIC50) is 6.94.

With `C#Cc1c(F)ccc2cc(O)cc(-c3ncc4c([C@H]5[C@@H]6CN[C@@H](C(=O)OC)[C@@H]65)nn(C)c4c3F)c12` (racemic) [Example 48, methyl rac-(2R,6S)-6-[6-(8-ethynyl-7-fluoro-3-hydroxy-1-naphthyl)-7-fluoro-1-methyl-pyrazolo[4,3-c]pyridin-3-yl]-3-azabicyclo[3.1.0]hexane-2-carboxylate], the pIC50 is 5.19.

The test is the same for the next values; noted with them: Homo sapiens, THP-1, 2 h, 2 hours incubation, HBSS with 0% or 10% FBS, p-ERK1/2 (Thr202/Tyr204) AlphaLISA, read-out: pERK THP-1 IC50.
Turning to `C#Cc1c(F)ccc2cc(O)cc(-c3nc(N(C)C)c4c(N5C[C@H]6CC[C@@H]5CN6)nn(C5CC5)c4c3F)c12` (stereo in doubt) [Example 92, 4-(3-((1R,4R)-2,5-diazabicyclo[2.2.2]octan-2-yl)-1-cyclopropyl-4-(dimethylamino)-7-fluoro-1H-pyrazolo[4,3-c]pyridin-6-yl)-5-ethynyl-6-fluoronaphthalen-2-ol], the pIC50 is less than 5.00.

For the molecule `C#Cc1c(F)ccc2cc(O)cc(-c3ncc4c(N5C[C@@H](C)N[C@@H](C)C5)nn(C)c4c3F)c12` [Example 32, 4-[3-[(3R,5S)-3,5-dimethylpiperazin-1-yl]-7-fluoro-1-methyl-pyrazolo[4,3-c]pyridin-6-yl]-5-ethynyl-6-fluoro-naphthalen-2-ol], the negative-log IC50 (pIC50) was less than 4.30.

As for `C#Cc1c(F)ccc2cc(O)cc(-c3ncc4c(N5C6CNCC5C6)nn(C)c4c3F)c12` [Example 35, 4-[3-(3,6-diazabicyclo[3.1.1]heptan-6-yl)-7-fluoro-1-methyl-pyrazolo[4,3-c]pyridin-6-yl]-5-ethynyl-6-fluoro-naphthalen-2-ol], the pIC50 is 5.33.

On to `C#Cc1c(F)ccc2cc(O)cc(-c3ncc4c(N5C[C@@H]6CNC[C@@H]65)nn(C5CC5)c4c3F)c12` [Example 37, 4-[1-cyclopropyl-3-[(1S,5R)-3,6-diazabicyclo[3.2.0]heptan-6-yl]-7-fluoro-pyrazolo[4,3-c]pyridin-6-yl]-5-ethynyl-6-fluoro-naphthalen-2-ol], for which the negative-log IC50 (pIC50) was 5.18.

Consider `C#Cc1c(F)ccc2cc(O)cc(-c3ncc4c(C5C(=O)C6CCC5CN6)nn(C)c4c3F)c12` (stereo not shown) [Example 41, 5-[6-(8-ethynyl-7-fluoro-3-hydroxy-1-naphthyl)-7-fluoro-1-methyl-pyrazolo[4,3-c]pyridin-3-yl]-2-azabicyclo[2.2.2]octan-6-one], for which the negative logarithm of the IC50 (pIC50) was less than 5.00.

With `C#Cc1c(F)ccc2cc(O)cc(-c3ncc4c(C5CC6CCC5CN6)nn(C)c4c3F)c12` (stereo not shown) [Example 43, 4-[3-(2-azabicyclo[2.2.2]octan-5-yl)-7-fluoro-1-methyl-pyrazolo[4,3-c]pyridin-6-yl]-5-ethynyl-6-fluoro-naphthalen-2-ol], the negative-log IC50 (pIC50) is less than 5.00.

With `C#Cc1c(F)ccc2cc(O)cc(-c3nc(CCC#N)c4c([C@H]5[C@@H]6CNC[C@@H]65)nn(C5CC5)c4c3F)c12` [Example 50, 3-[3-(3-azabicyclo[3.1.0]hexan-6-yl)-1-cyclopropyl-6-(8-ethynyl-7-fluoro-3-hydroxy-1-naphthyl)-7-fluoro-pyrazolo[4,3-c]pyridin-4-yl]propanenitrile], the pIC50 is 6.31.

In the case of `C#Cc1c(F)ccc2cc(O)cc(-c3nc(C)c4c([C@H]5[C@@H]6CNC[C@@H]65)nn(C5CC5)c4c3F)c12` [Example 51, 4-[3-(3-azabicyclo[3.1.0]hexan-6-yl)-1-cyclopropyl-7-fluoro-4-methyl-pyrazolo[4,3-c]pyridin-6-yl]-5-ethynyl-6-fluoro-naphthalen-2-ol], the pIC50 was 6.60.
